This is an account of results in patent US20040192554A1, “Technique for effectively treating an agricultural product with a 1-substituted-cyclopropene” (priority 2003, published 2004).

Common to all, as to assay type: in vivo
For experiment [1], the system named is apple (variety "Sansa") fruit. As to the kind of experiment: Quality deterioration of apple (Sansa) fruit after storage, Example 5. Conditions: 1 ppm, after storage 25 degrees C 2 weeks. As to the method: Using an apple (variety “Sansa”) fruit (6 fruits were used per group) as an agricultural product, the following experiment was performed.
1) A fruit and 1-methylcyclopropene (concentration 1 ppm in a chamber) were placed into a sealed chamber, and contact-treated for 12 hours under a normal pressure.
(§1) 2) A fruit was placed into a sealed chamber, and a pressure in the chamber was reduced to 25.0 kPa. Subsequently, 1-methylcyclopropene was placed therein to the concentration in the chamber of 1 ppm, and contact-treated for 1 minute under the reduced pressure (25.0 kPa).
The fruit which had been subjected to treatment of the above-mentioned 1) or 2) was stored at 25 degrees C for 2 weeks, and hardness of flesh, pH of a fruit juice which is an index for the content of an acid, and the ethylene concentration in a fruit core were measured. Contact treatment of the above-mentioned 1) or 2) was performed on the following day of harvesting a fruit. In addition, also regarding a fruit undergoing no treatment of 1) or 2) (non-treatment), similar storage was performed, and the above-mentioned index was measured. Further, regarding non-treated fruit, the above-mentioned index before storage was also measured. Different alpha characters in Table 4 indicate that a significant difference was recognized at a risk rate of 5% (multiple range test of Newman-Keuls).

For experiment [2], the system named is peach (variety "Akatsuki") fruit. The experiment is described as follows: Quality deterioration of peach (Akatsuki) fruit after storage, Example 9. The following applies: 1 ppm, after storage 25 degrees C 5 days, treated day after harvest. As to the method: Using a peach (variety “Akatsuki”) fruit (6 fruits were used per group) as an agricultural product, the following experiment was performed.
1) A fruit was placed into a sealed chamber, and a pressure in the chamber was reduced to 25.0 kPa. Subsequently, 1-methylcyclopropene was placed therein to the concentration in the chamber of 1 ppm, and contact-treated for 1 minute under the reduced pressure (25.0 kPa). Then, the pressure was returned to a normal pressure, and contact treatment was carried out for 12 hours while the concentration of 1-methylcyclopropene in the chamber was maintained at 1 ppm.
2) A fruit was placed into a sealed chamber, and a pressure in the chamber was reduced to 25.0 kPa. Subsequently, 1-methylcyclopropene was placed therein to the concentration in the chamber of 1 ppm, and contact-treated for 12 hours under the reduced pressure (25.0 kPa).
The fruit which had been subjected to treatment of the above-mentioned 1) or 2) was stored at 25 degrees C for 5 days, and hardness of flesh was measured. […] In addition, also regarding a fruit undergoing no treatment of 1) or 2) (non-treatment), similar storage was performed, and the above-mentioned index was measured. Further, regarding a non-treated fruit, the above-mentioned index before storage was also measured. […]

Experiment [3] has as its system peach (variety "Yuzora") fruit. As to the kind of experiment: Quality deterioration of peach (Yuzora) fruit after storage, Example 7. The following applies: 1 ppm, after storage 25 degrees C 9 days. The protocol: Using a peach (variety “Yuzora”) fruit (6 fruits were used per group) as an agricultural product, the following experiment was performed.
1) A fruit and 1-methylcyclopropene (concentration 1 ppm in a chamber) were placed into a sealed chamber, and contact-treated for 24 hours under a normal pressure.
as §1
The fruit which had been subjected to treatment of the above-mentioned 1) or 2) was stored at 25 degrees C for 9 days, and hardness of flesh and was measured. In addition, contact treatment of the above-mentioned 1) or 2) was performed on the next day from harvesting of fruit. In addition, also regarding a fruit undergoing no treatment of 1) or 2) (non-treatment), similar storage was performed, and the above-mentioned index was measured. Further, regarding non-treated fruit, the above-mentioned index before storage was also measured.

The test system of experiment [4] is cut flower of a carnation (variety "Rosybabara"). As to the kind of experiment: Withering of carnation cut flower after storage, Example 10. The following applies: 1 ppm, after storage 20 degrees C 14 days, average score of 5 plants (0=healthy). The protocol:
Using a cut flower (5 ornamental plants were used per group) of a carnation (variety “Rosybabara”) as an agricultural product, the following experiment was performed. […]
2) An ornamental plant was placed into a sealed chamber, and a pressure in the chamber was reduced to 12.5 kPa. Subsequently, 1-methylcyclopropene was placed therein to the concentration in the chamber of 1 ppm, and contact-treated for 1 minute under the reduced pressure (12.5 kPa).
3) An ornamental plant was placed in a sealed chamber. Subsequently, a pressure in the chamber was reduced to 12.5 kPa and the ornamental plant was kept in the chamber under the reduced pressure for 1 minute.
An ornamental plant which had been subjected to treatment of the above-mentioned 1), 2) or 3) was stored at 20 degrees C for 14days, and an extent of withering of an ornamental plant was assessed by naked eyes. Assessment criteria were 4 stages; 0=healthy, 1=slight withering, 2=intermediate withering, […], and an average of assessment in 5 ornamental plants was calculated. Note that the treatment above-mentioned 1), 2) or 3) was performed on a day of harvesting an ornamental plant. In addition, also regarding an ornamental plant undergoing no treatment of 1), 2) or 3) (non-treatment), the similar storage was performed, and the above-mentioned index was measured.

The subject of experiment [5] is Japanese pear (variety "Kosui") fruit. As to the kind of experiment: Quality deterioration of Japanese pear (Kosui) fruit after storage, Example 3. The following applies: 1 ppm, after storage 25 degrees C 2 weeks. As to the method: Using a Japanese pear (variety “Kosui”) fruit (6 fruits were used per group) as an agricultural product, the following experiment was performed.
1) A fruit and 1-methylcyclopropene (concentration 1 ppm in a chamber) were placed into a sealed chamber, and contact-treated for 16 hours under a normal pressure.
as §1
The fruit which had been subjected to treatment of the above-mentioned 1) or 2) was stored at 25 degrees C for 2 weeks, and hardness of flesh and pH of a fruit juice which is an index for the content of an acid were measured. In addition, an extent of storage disorder was assessed by tasting. Contact treatment of the above-mentioned 1) or 2) was performed on a day of harvesting a fruit. In addition, also regarding a fruit undergoing no treatment of 1) or 2) (non-treatment), similar storage was performed, and the above-mentioned index was measured and assessed. Further, regarding non-treated fruit, the above-mentioned index before storage was also measured and assessed. Different alpha characters in Table 3 indicate that a significant difference was recognized at a risk rate of 5% (multiple range test of Newman-Keuls).

Where [6] appears, read: Reduced pressure (25.0 kPa) 1 minute.

Take `CC1=CC1` [1-MCP, 1-methylcyclopropene]: the results for the “Ethylene concentration in fruit core” value in experiment [1] (Normal pressure 12 hours) and in experiment [1] (setting [6]) were 1.86a μL/L and 0.97a μL/L, respectively. Further, the Hardness of flesh in experiment [1] (Normal pressure 12 hours) is 61.05b N; in experiment [1] (setting [6]), 63.21b N; in experiment [2] (Normal pressure 12 hours after reduced pressure (25.0 kPa) 1 minute), 4.39a N; in experiment [2] (Reduced pressure (25.0 kPa) 12 hours), 7.11b N; in experiment [3] (Normal pressure 24 hours), 4.38 N; in experiment [3] (setting [6]) it was 4.24 N. For the same compound, the Hardness of flesh in experiment [5] (Normal pressure 16 hours) came to 22.44 N; in experiment [5] (setting [6]) it was 21.36 N. Also, the “pH of fruit juice” value in experiment [1] (Normal pressure 12 hours) was 3.38a; in experiment [1] (setting [6]), 3.40a; in experiment [5] (Normal pressure 16 hours) it was 5.22a; in experiment [5] (setting [6]) it was 5.57b. In addition, the Extent of withering in experiment [4] (Normal pressure 1 hour) was determined as 0.8; in experiment [4] (Normal pressure 24 hours), 0.4; in experiment [4] (Reduced pressure (12.5 kPa) 1 minute) it was 0.4. In addition, the Tasting result in experiment [5] (Normal pressure 16 hours) and in experiment [5] (setting [6]) was “Better” each time.
